Experiments:
A375 cells = assay: ceramide levels in A375 human melanoma cells; type: cell-based; settings: 25 μM
Procedure: (§1) Specifically, FIG. 1 evidences the effects of compound of Example 7 or vehicle (0.1% DMSO in DMEM) on AC activity and ceramide levels in A375 (left panel) or MeWo (right panel) human melanoma cell lines. (A-B) Intact cells were treated with compound of Example 7 (25 μM) or vehicle and AC activity was measured 30 minutes or 3 hours later in cell lysates. (B) Intact cells were exposed to compound of Example 7 (25 μM) for 2 hours or 24 hours and medium chain ceramides (C-D), long chain ceramides (E-F) and dihydroceramides (G-H) were quantified. Results are expressed as mean±s.e.m. (n=3). *p<0.05, **p<0.01, ***p<0.001 vs vehicle, two-way ANOVA followed by Dunnet.
(§2) Lipids were extracted from mouse tissue lysate with a chloroform/MeOH mixture (2:1 v/v, 3 mL) containing internal standards. The organic phase was collected, dried under nitrogen, and dissolved in chloroform/MeOH (1:3 v/v) for LC-MS analyses. Ceramides, sphingosine and sphinganine were analyzed by LC-MS/MS, using a Waters Acquity UPLC coupled with a Waters Xevo TQMS and interfaced with ESI. Separation was done on a Waters Acquity BEH C18 1.7 μm column (2.1×50 mm) at 60° C. A step gradient of 0.1% formic acid in acetonitrile/water (20:80 v/v) as solvent A and 0.1 formic acid in acetonitrile/isopropyl alcohol (20:80 v/v) as solvent B was applied at a flow rate of 0.4 mL/min. Detection was in the positive ionization mode. Capillary voltage was 3.5 kV and cone voltage was 25 V. The source temperature and desolvation temperatures were set at 120° C. and 600° C. respectively. […]
(§3) Tissue-derived ceramides were identified by comparison of their LC retention times and MS^2 fragmentation patterns with those of authentic standards (Avanti Polar Lipids). Extracted ion chromatograms were used to quantify myristoyl ceramide (C14:0, m/z 510.5>492.5>264.3), palmitoyl ceramide (C16:0, m/z 538.5>520.3>264.3), stearoyl ceramide (C18:0 m/z 566.5>548.3>264.3), lignoceroyl ceramide (C24:0 m/z 650.5>632.3>264.3), nervonoyl ceramide (C24:1 m/z 648.5>630.3>264.3) and using lauroyl ceramide standard (m/z 482.5>464.5>264.3). […]

AC [1] = biological target: T1, AC (Homo sapiens (Human), UniProt Q13510); assay: AC activity in MeWo human melanoma cells; type: cell-based; settings: 25 μM, evident at 30 minutes, lasted up to 3 hours
Procedure: as §1
hAC protein preparation (10 μg) was preincubated with inhibitors (final DMSO concentration 1%) in assay buffer (100 mM sodium phosphate, 0.1% Nonidet P-40, 150 mM NaCl, 3 mM DTT, 100 mM sodium citrate, pH 4.5) for 30 min at 37° C. Reactions were started by the addition of 50 μM N-lauroyl ceramide (Nu-Chek Prep, Elysian, Minn.) and carried on for 30 min at 37° C. […] The organic phases were collected, dried under nitrogen and analyzed by UPLC/MS (Acquity, Waters). […]
The [M−H]^− ion was monitored in the selected-ion monitoring mode (m/z values: lauric acid 199, 11-lauroleic acid 197.35). […] Inhibition of AC activity was calculated as reduction of lauric acid in the samples compared to vehicle controls. […]

MeWo cells = assay: ceramide levels in MeWo human melanoma cells; type: cell-based; settings: 25 μM
Procedure: as §1, §2, §3

COX1 (h) = COX1 (h) (Homo sapiens (Human), UniProt P23219); assay: Cerep enzyme inhibition screen: COX1; type: biochemical; settings: mean of two determinations, read-out: Inhibitory activity (% Inh. at 10 μM), mean
Source text: (§4) Compound of Example 25 falling in both Formula (I) and (Ia) was selected to be tested for off-target effects on a set of enzymes that include proteases (aspartic, cysteine, and serine), cyclooxygenases as well as lipoxygenases and group IV phospholipase (sPLA2) (Table 3). [table]

COX2 (h) = COX2 (h) (Homo sapiens (Human), UniProt P35354); assay: Cerep enzyme inhibition screen: COX2; type: biochemical; settings: mean of two determinations, read-out: Inhibitory activity (% Inh. at 10 μM), mean
Source text: as §4

AC [2] = biological target: T1, AC; assay: AC activity in SW403 human colon adenocarcinoma cells; type: cell-based
Procedure: (A) Intact cells were treated with compound of Example 25 (0.1-20 μM) or vehicle and AC activity was measured 3 hours later in cell lysates. (B-E) Intact cells were exposed to compound of Example 25 (0.1-20 μM) for 3 hours and sphingosine/sphinganine (B), dihydroceramides (C), medium chain ceramides (D), long chain ceramides (E) were quantified. Results are expressed as mean±s.e.m. (n=3). *p<0.05, **p<0.01, ***p<0.001 vs vehicle, two-way ANOVA followed by Dunnet.
(A) Intact cells were treated with compound of Example 25 (20 μM) or vehicle and AC activity was measured 1 to 48 hours later in cell lysates. (B-E) Intact cells were exposed to compound of Example 25 (20 μM) and sphingosine (B), C16:0 dihydroceramide (C), C16:0 ceramide (D) were quantified. Results are expressed as mean±s.e.m. (n=3). *p<0.05, **p<0.01, ***p<0.001 vs vehicle, two-way ANOVA followed by Dunnet.
hAC protein preparation (10 μg) was preincubated with inhibitors (final DMSO concentration 1%) in assay buffer (100 mM sodium phosphate, 0.1% Nonidet P-40, 150 mM NaCl, 3 mM DTT, 100 mM sodium citrate, pH 4.5) for 30 min at 37° C. Reactions were started by the addition of 50 μM N-lauroyl ceramide (Nu-Chek Prep, Elysian, Minn.) and carried on for 30 min at 37° C. Reactions were stopped by addition of a mixture of chloroform/methanol (2:1, vol/vol) containing 1 nmol 11-lauroleic acid (NuChek Prep). The organic phases were collected, dried under nitrogen and analyzed by UPLC/MS (Acquity, Waters). In the negative-ion mode monitoring the reaction product (lauric acid, m/z=199) using 11-lauroleic acid as internal standard. […]
The [M−H]^− ion was monitored in the selected-ion monitoring mode (m/z values: lauric acid 199, 11-lauroleic acid 197.35). […] Inhibition of AC activity was calculated as reduction of lauric acid in the samples compared to vehicle controls. IC50 values were calculated by non-linear regression analysis of log [concentration]/inhibition curves using GraphPad Prism 5 (GraphPad Software Inc., CA—USA) applying a standard slope curve fitting.

[3] = 20 μM, AC activity and sphingolipid levels

T1 sequence (Q13510 22-142): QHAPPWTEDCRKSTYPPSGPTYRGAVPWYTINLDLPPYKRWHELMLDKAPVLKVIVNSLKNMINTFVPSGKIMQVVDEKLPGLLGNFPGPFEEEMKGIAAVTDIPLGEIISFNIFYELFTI
T1 sequence (Q13510 143-395): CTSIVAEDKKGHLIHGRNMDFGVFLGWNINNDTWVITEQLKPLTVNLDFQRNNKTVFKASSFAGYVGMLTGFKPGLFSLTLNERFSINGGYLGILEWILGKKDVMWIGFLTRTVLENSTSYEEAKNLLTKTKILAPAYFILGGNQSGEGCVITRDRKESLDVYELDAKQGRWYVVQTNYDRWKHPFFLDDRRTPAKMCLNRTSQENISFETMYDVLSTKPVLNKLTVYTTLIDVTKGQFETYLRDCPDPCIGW
COX1 (h), sequence (P23219 24-599): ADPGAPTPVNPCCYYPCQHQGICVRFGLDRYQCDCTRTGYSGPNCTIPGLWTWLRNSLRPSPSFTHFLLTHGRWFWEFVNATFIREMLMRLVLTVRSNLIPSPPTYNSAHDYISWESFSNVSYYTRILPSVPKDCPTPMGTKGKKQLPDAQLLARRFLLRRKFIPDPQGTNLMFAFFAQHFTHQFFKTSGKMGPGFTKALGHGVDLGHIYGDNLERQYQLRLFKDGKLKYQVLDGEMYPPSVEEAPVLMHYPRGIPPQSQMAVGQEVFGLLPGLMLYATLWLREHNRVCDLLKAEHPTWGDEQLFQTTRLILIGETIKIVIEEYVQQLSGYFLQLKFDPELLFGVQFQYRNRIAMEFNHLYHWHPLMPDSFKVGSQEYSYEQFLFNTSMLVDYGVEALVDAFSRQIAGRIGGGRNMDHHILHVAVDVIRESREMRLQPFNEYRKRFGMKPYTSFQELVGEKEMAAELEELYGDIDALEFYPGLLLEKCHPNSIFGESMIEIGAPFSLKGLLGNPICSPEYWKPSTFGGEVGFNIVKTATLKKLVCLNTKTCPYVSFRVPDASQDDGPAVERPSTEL
COX2 (h), sequence (P35354 18-604): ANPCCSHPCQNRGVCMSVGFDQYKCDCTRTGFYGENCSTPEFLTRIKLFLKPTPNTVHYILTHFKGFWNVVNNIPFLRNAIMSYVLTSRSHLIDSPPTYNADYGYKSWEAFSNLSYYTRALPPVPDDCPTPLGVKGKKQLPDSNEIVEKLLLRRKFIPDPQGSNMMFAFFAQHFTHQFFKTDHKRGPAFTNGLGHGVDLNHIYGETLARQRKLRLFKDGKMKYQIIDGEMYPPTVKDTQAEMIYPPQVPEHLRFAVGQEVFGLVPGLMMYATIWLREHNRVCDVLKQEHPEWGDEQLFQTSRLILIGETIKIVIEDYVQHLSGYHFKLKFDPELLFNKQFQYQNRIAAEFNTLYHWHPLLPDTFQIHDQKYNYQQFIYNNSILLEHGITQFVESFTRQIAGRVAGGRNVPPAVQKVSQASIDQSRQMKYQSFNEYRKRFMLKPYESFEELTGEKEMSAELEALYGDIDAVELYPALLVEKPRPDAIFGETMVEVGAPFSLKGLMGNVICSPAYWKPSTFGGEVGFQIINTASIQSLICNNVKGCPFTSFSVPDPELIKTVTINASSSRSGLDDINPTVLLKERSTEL

Row | SMILES | duration of effects on ceramide levels (A375 cells; A375 cells (low AC expression)) | di-hydro ceramide species levels (A375 cells; A375 cells) | ceramide species levels (cer(d18:1/14:0), cer(d18:1/16:0), cer(d18:1/18:0), cer(d18:1/24:1)) (A375 cells; A375 cells, LC/MS) | AC activity (AC [1]) | duration of effects on ceramide levels (MeWo cells; MeWo cells (high AC expression)) | di-hydro ceramide species levels (MeWo cells; MeWo cells) | ceramide species levels (cer(d18:1/14:0), cer(d18:1/16:0), cer(d18:1/18:0), cer(d18:1/24:1)) (MeWo cells; MeWo cells, LC/MS) | inhibition at 10 µM (COX1 (h)) [%] | inhibition at 10 µM (COX2 (h)) [%] | duration of effects (timecourse) (AC [2]; [3]) [h] | onset of significant effects (timecourse) (AC [2]; [3]) [h] | AC activity (AC [2]; 0.1-20 μM, 3 hours)
1 | O=C(NCCCCc1ccccc1)n1c(=O)oc2cc(Br)ccc21 [Example 7, 6-Bromo-2-oxo-N-(4-phenylbutyl)-1,3-benzoxazole-3-carboxamide] | lasted up to 24 hours | significant increase in all di-hydro ceramide species analyzed | intracellular accumulation of various ceramide species | reduction in AC activity | recovered the initial phenotype after 24 hours | significant increase in all di-hydro ceramide species analyzed | intracellular accumulation of various ceramide species | – | – | – | – | –
2 | O=C(NCCCCc1ccccc1)n1c(=O)oc2cc(-c3ccc(F)cc3)ccc21 [Example 25, 6-(4-Fluorophenyl)-2-oxo-N-(4-phenylbutyl)-1,3-benzoxazole-3-carboxamide] | – | – | – | – | – | – | – | -6.1 | 6.7 | ≥ 6 | ≤ 1 | concentration dependent reduction in AC activity

Reference: patent publication US10226452B2, “Benzoxazolone derivatives as acid ceramidase inhibitors, and their use as medicaments” (FONDAZIONE ISTITUTO ITALIANO DI TECNOLOGIA, priority 2014, dated 2019)
